In one assay the target is T1, GtfE (Amycolatopsis orientalis, UniProt Q9AFC6).
T1 construct: made in house; host or cells: Escherichia coli
T1 sequence (Q9AFC6 1-409): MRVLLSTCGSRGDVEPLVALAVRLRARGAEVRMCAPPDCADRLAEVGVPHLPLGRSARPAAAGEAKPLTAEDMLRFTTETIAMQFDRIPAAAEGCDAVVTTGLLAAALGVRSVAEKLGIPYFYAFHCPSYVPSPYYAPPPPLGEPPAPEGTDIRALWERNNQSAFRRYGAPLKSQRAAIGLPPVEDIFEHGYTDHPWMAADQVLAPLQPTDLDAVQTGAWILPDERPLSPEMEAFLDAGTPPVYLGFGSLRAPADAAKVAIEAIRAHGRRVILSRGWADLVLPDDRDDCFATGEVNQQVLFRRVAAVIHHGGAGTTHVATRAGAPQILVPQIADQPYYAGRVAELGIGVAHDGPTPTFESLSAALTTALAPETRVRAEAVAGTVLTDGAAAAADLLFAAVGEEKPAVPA
As to the kind of experiment: GtfE steady-state kinetics and transfer of NDP-glucose derivatives to heptapeptide aglycone. To be noted: for Km: NDP-sugar donor varied, acceptor vancomycin aglycone held at 1 mM; for Km / kcat: pH 9; for kcat: acceptor vancomycin aglycone 1 mM; for catalytic efficiency relative to native substrate: vancomycin aglycone as acceptor; for recognition / transfer of the sugar by GtfE: vancomycin and teicoplanin aglycone acceptors, HPLC and mass spectrometry. The assay is classed as biochemical. On the procedure: (The acceptor substrate, the vancomycin aglycone, was held constant at 1 mM in each experiment.)
Biochemistry 2001; 40(15):4745-55; and Solenberg et al. Production of hybrid glycopeptide antibiotics in vitro and in Streptomyces toyocaensis. Chem Biol 1997; 4(3):195-202. Reactions were carried out and analyzed by HPLC as previously described. […] Each 100 μL reaction contained either 1 mM vancomycin aglycone or 0.5 mM teicoplanin aglycone. […] Reactions with GtfD also contained 2 mM UDP-L-4-epi-vancosamine. 50 μL time points were taken at 0 and 20 h, and quenched with 9 vol methanol. After centrifugation, the supernatants were dried and resuspended in water for HPLC analysis. All glycosylation reactions were monitored by UV (285 nm) using a Vydac C18 small pore column with a linear gradient of 0-20 percent acetonitrile in water with 0.1 percent trifluoracetic acid. The molecular weight of new products was analyzed by Maldi-TOF mass spectrometry using a Perseptive Biosystems Voyager-DE STR mass spectrometer.
All reactions were carried out with 1 mM vancomycin aglycone as the acceptor substrate. […] Each experiment was performed in duplicate or triplicate.

Assay [1] deals with thymidylyltransferase (rmlA-encoded Ep) (Salmonella typhimurium, UniProt P26393). To be noted: Lindquist et al. 1993, cited from earlier work.
Sequence of thymidylyltransferase (rmlA-encoded Ep) (P26393 whole entry): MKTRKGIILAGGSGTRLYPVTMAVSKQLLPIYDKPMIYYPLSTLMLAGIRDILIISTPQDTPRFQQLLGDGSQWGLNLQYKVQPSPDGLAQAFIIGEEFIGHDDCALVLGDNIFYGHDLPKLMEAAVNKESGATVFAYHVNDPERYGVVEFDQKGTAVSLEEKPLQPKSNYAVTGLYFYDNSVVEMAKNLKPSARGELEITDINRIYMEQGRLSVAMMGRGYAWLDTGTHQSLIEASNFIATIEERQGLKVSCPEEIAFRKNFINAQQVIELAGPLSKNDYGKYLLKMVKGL
For a further assay, the system named is DNA. The settings on record: estimated; unit not given; cited from earlier work.
The mark [2] stands for this setting: read-out: Km, forward direction.

Entries after “also recorded” stand apart in the source; their conditions may differ. Where two headings read alike, the source gives them in different places.

For `Cc1cn([C@H]2C[C@H](O)[C@@H](COP(=O)(O)OP(=O)(O)O[C@H]3O[C@H](CO)[C@@H](O)[C@H](O)[C@H]3O)O2)c(=O)[nH]c1=O` [TDP-glucose, Thymidine 5′-(α-D-glucopyranosyl diphosphate), reference compound], on GtfE, the Km turned out to be 620 ± 90 µM and the kcat turned out to be 0.483 ± 0.033 s⁻¹. Moreover, the Km in assay [1] (read-out: Km, reverse reaction) is 83 µM. As for `O=C[C@H](O)[C@@H](O)[C@H](O)CO` [UDP-xylose, UDP xylose, reference compound], the “catalytic efficiency relative to native substrate” value on GtfE is “about 10%”. With `O=P(O)(O)OP(=O)(O)O` [diphosphate], the Km in assay [1] (read-out: Km, reverse reaction) was 150 µM. For the molecule `CCN[C@H]1CO[C@@H](O[C@H]2[C@H](O[C@H]3C#CC=CC#C[C@@]4(O)CC(=O)C(NC(=O)OC)=C3/C4=C\CSSSC)O[C@H](C)[C@@H](NO[C@H]3C[C@H](O)[C@H](SC(=O)c4c(C)c(I)c(O[C@@H]5O[C@@H](C)[C@H](O)[C@@H](OC)[C@H]5O)c(OC)c4OC)[C@@H](C)O3)[C@@H]2O)C[C@@H]1OC` (stereo in doubt) [calicheamicin, calicheamicin γ1^I], the “affinity (DNA binding)” value with DNA is listed as 10^6-10^8.

Regarding `Cc1cn([C@H]2C[C@H](O)[C@@H](COP(=O)(O)OP(=O)(O)O[C@H]3O[C@H](CO)[C@@H](N)[C@H](O)[C@H]3O)O2)c(=O)[nH]c1=O` [TDP-4-NH2-glucose, Thymidine 5′-(4-amino-4-deoxy-α-D-glucopyranosyl diphosphate)], on GtfE, the Km is 1100 ± 100 µM and the kcat amounted to 0.0217 ± 0.0017 s⁻¹.

With `O=c1ccn([C@@H]2O[C@H](COP(=O)(O)OP(=O)(O)O[C@H]3O[C@H](CCl)[C@@H](O)[C@H](O)[C@H]3O)[C@@H](O)[C@H]2O)c(=O)[nH]1` [UDP-6-Cl-glucose, UDP-6-chloro-glucose], on GtfE, the Km was found to be 21000 ± 6000 µM, the kcat stood at 0.005 ± 0.0017 s⁻¹ and the “catalytic efficiency relative to native substrate” value is on record as “less than 0.1%”. Turning to `Cc1cn(C2CC(O)C(COP(=O)(O)OP(=O)(O)OC3OC(CO)C(O)C(N)C3O)O2)c(=O)[nH]c1=O` [TDP-3-NH2-glucose, Thymidine 5′-(3-amino-3-deoxy-α-D-glucopyranosyl diphosphate)], at GtfE, the Km was found to be 720 ± 60 µM and the kcat was 0.06 ± 0.0033 s⁻¹. On to `[N-]=[N+]=NC1C(OP(=O)(O)OP(=O)(O)OCC2OC(n3ccc(=O)[nH]c3=O)C(O)C2O)OC(CO)C(O)C1O` (centres unmarked) [UDP-2-azido-glucose], for which the “recognition / transfer of the sugar by GtfE” value (“recognition / transfer” below) at GtfE was “inadequate for transfer”. For `NC1C(OP(=O)(O)OP(=O)(O)OCC2OC(n3ccc(=O)[nH]c3=O)C(O)C2O)OC(CO)C(O)C1O` [UDP-2-NH2-glucose, Uridine 5′-(2-amino-2-deoxy-α-D-glucopyranosyl diphosphate)], on GtfE, the Km came out at 790 ± 80 µM and the catalytic constant (kcat) was determined as 0.045 ± 0.0033 s⁻¹.

In the case of `[N-]=[N+]=NCC1OC(OP(=O)(O)OP(=O)(O)OC[C@H]2O[C@@H](n3ccc(=O)[nH]c3=O)[C@H](O)[C@@H]2O)C(O)C(O)C1O` (some centres unmarked) [UDP-6-azido-glucose], the “recognition / transfer” value at GtfE is “inadequate for transfer”. Turning to `NC[C@H]1O[C@H](OP(=O)(O)OP(=O)(O)OC[C@H]2O[C@@H](n3ccc(=O)[nH]c3=O)[C@H](O)[C@@H]2O)[C@H](O)[C@@H](O)[C@@H]1O` [UDP-6-NH2-glucose, Uridine 5′-(6-amino-6-deoxy-α-D-glucopyranosyl diphosphate)], on GtfE, the Km was found to be 1200 ± 200 µM and the kcat was 0.025 ± 0.0033 s⁻¹.

For the molecule `Cc1cn([C@H]2C[C@H](O)[C@@H](COP(=O)(O)OP(=O)(O)OP(=O)(O)O)O2)c(=O)[nH]c1=O` [dTTP], the Km in assay [1] (setting [2]) was 20 µM. As for `O=c1ccn(C2OC(COP(=O)(O)OP(=O)(O)OC3OC(CO)C(O)C(O)C3F)C(O)C2O)c(=O)[nH]1` (centres unmarked) [UDP-2-fluoro-glucose], the “recognition / transfer” value at GtfE is recorded as “inadequate for transfer; also recorded: not recognized”. Regarding `O=P(O)(O)O[C@H]1O[C@H](CO)[C@@H](O)[C@H](O)[C@H]1O` [α-D-glucose-1-phosphate], the Km in assay [1] (setting [2]) is 110 µM.

Turning to TDP-2-fluoro-glucose, the “recognition / transfer” value on GtfE was “not detectably processed”.
